Assay results as given in patent US20260042764A1, “COMPOSITIONS AND METHODS FOR INHIBITION OF KRAS” (TheRas, Inc., priority 2022, published 2026).

molecular target: T1, Avi-KRAS G12D (1-169) GppNHp/RAF1 RBD-3xFLAG (52-151) (Homo sapiens, UniProt P01116, G12D); assay: Raf1-KRAS G12D-GppNHP disruption HTRF assay (Biological Example 1); format: binding; settings: KRAS G12D-GppNHp/RAF1 RBD HTRF
T1 construct: Avi-KRAS G12D (1-169)
Summary of the method: (§1)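 Using HTRF, the loss of KRAS–effector RAF1 complex was quantified in 50 mM Tris pH 7.5 buffer with 100 mM NaCl and 0.1% BSA. The protein step and reagent step ran 1 h each at room temperature. Activity normalized with DMSO taken as 100%.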

T1 sequence (P01116 1-169 isoform P01116-2 G12D): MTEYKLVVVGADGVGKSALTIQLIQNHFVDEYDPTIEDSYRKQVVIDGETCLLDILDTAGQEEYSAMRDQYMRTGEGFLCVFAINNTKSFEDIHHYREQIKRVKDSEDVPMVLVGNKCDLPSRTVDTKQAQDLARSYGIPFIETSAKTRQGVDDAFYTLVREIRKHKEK

Compound | IC50 [nM]
CC(C)C(=O)N1CC[C@](C)(N(C)c2nc(OC[C@@]34CCCN3C[C@H](F)C4)nc3c(F)c(-c4ccc(F)c5sc(N)c(C#N)c45)c(C(F)(F)F)cc23)C1 [Compound 499] | 100 to 1000
N#Cc1c(N)sc2c(F)ccc(-c3c(C(F)(F)F)cc4c(N5CCn6nc(C(=O)N7CC[C@H](O)C7)cc6C5)nc(OC[C@@]56CCCN5C[C@H](F)C6)nc4c3F)c12 [Compound 500] | 100 to 1000
N#Cc1c(N)sc2c(F)ccc(-c3c(C(F)(F)F)cc4c(N5CCn6nc(C(=O)N7CC(O)C7)cc6C5)nc(OC[C@@]56CCCN5C[C@H](F)C6)nc4c3F)c12 [Compound 502] | 100 to 1000
CC(=O)N1C[C@@H](N(C)c2nc(OC[C@@]34CCCN3C[C@H](F)C4)nc3c(F)c(-c4ccc(F)c5sc(N)c(C#N)c45)c(C(F)(F)F)cc23)C[C@H]1CC#N [Compound 503] | 100 to 1000
CC(=O)N1CC[C@](C)(N(C)c2nc(OC[C@@]34CCCN3C[C@H](F)C4)nc3c(F)c(-c4ccc(F)c5sc(N)c(C#N)c45)c(C(F)(F)F)cc23)C1 [Compound 505] | 1000 to 10000
CCC(=O)N1CC[C@](C)(N(C)c2nc(OC[C@@]34CCCN3C[C@H](F)C4)nc3c(F)c(-c4ccc(F)c5sc(N)c(C#N)c45)c(C(F)(F)F)cc23)C1 [Compound 506] | 100 to 1000

molecular target: T2, Avi-KRAS G12R (1-169) GppNHp/RAF1 RBD-3xFLAG (52-151) (Homo sapiens, UniProt P01116, G12R); assay: Raf1-KRAS G12R-GppNHP disruption HTRF assay (Biological Example 1); format: binding; settings: KRAS G12R-GppNHp/RAF1 RBD HTRF
T2 construct: Avi-KRAS G12R (1-169)
Summary of the method: as §1

T2 sequence (P01116 1-169 isoform P01116-2 G12R): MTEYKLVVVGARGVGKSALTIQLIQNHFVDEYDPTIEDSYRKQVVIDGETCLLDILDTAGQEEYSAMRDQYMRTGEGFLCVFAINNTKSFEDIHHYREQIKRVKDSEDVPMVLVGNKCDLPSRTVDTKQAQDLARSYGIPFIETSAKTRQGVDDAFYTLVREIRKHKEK

Compound | IC50 [nM]
CC(C)C(=O)N1CC[C@](C)(N(C)c2nc(OC[C@@]34CCCN3C[C@H](F)C4)nc3c(F)c(-c4ccc(F)c5sc(N)c(C#N)c45)c(C(F)(F)F)cc23)C1 [Compound 499] | 1000 to 10000
N#Cc1c(N)sc2c(F)ccc(-c3c(C(F)(F)F)cc4c(N5CCn6nc(C(=O)N7CC[C@H](O)C7)cc6C5)nc(OC[C@@]56CCCN5C[C@H](F)C6)nc4c3F)c12 [Compound 500] | 100 to 1000
N#Cc1c(N)sc2c(F)ccc(-c3c(C(F)(F)F)cc4c(N5CCn6nc(C(=O)N7CC(O)C7)cc6C5)nc(OC[C@@]56CCCN5C[C@H](F)C6)nc4c3F)c12 [Compound 502] | 100 to 1000
CC(=O)N1C[C@@H](N(C)c2nc(OC[C@@]34CCCN3C[C@H](F)C4)nc3c(F)c(-c4ccc(F)c5sc(N)c(C#N)c45)c(C(F)(F)F)cc23)C[C@H]1CC#N [Compound 503] | 1000 to 10000
CC(=O)N1CC[C@](C)(N(C)c2nc(OC[C@@]34CCCN3C[C@H](F)C4)nc3c(F)c(-c4ccc(F)c5sc(N)c(C#N)c45)c(C(F)(F)F)cc23)C1 [Compound 505] | 1000 to 10000
CCC(=O)N1CC[C@](C)(N(C)c2nc(OC[C@@]34CCCN3C[C@H](F)C4)nc3c(F)c(-c4ccc(F)c5sc(N)c(C#N)c45)c(C(F)(F)F)cc23)C1 [Compound 506] | 1000 to 10000

molecular target: T3, Avi-KRAS G12V (1-169) GppNHp/RAF1 RBD-3xFLAG (52-151) (Homo sapiens, UniProt P01116, G12V); assay: Raf1-KRAS G12V-GppNHP disruption HTRF assay (Biological Example 1); format: binding; settings: KRAS G12V-GppNHp/RAF1 RBD HTRF
T3 construct: Avi-KRAS G12V (1-169)
Summary of the method: as §1

T3 sequence (P01116 1-169 isoform P01116-2 G12V): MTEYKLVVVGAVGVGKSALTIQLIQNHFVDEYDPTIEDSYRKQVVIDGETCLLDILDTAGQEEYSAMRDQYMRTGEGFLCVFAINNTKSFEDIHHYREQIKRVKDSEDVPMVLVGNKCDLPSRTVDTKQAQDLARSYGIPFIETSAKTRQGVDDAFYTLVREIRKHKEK

Compound | IC50 [nM]
CC(C)C(=O)N1CC[C@](C)(N(C)c2nc(OC[C@@]34CCCN3C[C@H](F)C4)nc3c(F)c(-c4ccc(F)c5sc(N)c(C#N)c45)c(C(F)(F)F)cc23)C1 [Compound 499] | 1000 to 10000
N#Cc1c(N)sc2c(F)ccc(-c3c(C(F)(F)F)cc4c(N5CCn6nc(C(=O)N7CC[C@H](O)C7)cc6C5)nc(OC[C@@]56CCCN5C[C@H](F)C6)nc4c3F)c12 [Compound 500] | 100 to 1000
N#Cc1c(N)sc2c(F)ccc(-c3c(C(F)(F)F)cc4c(N5CCn6nc(C(=O)N7CC(O)C7)cc6C5)nc(OC[C@@]56CCCN5C[C@H](F)C6)nc4c3F)c12 [Compound 502] | 100 to 1000
CC(=O)N1C[C@@H](N(C)c2nc(OC[C@@]34CCCN3C[C@H](F)C4)nc3c(F)c(-c4ccc(F)c5sc(N)c(C#N)c45)c(C(F)(F)F)cc23)C[C@H]1CC#N [Compound 503] | 1000 to 10000
CC(=O)N1CC[C@](C)(N(C)c2nc(OC[C@@]34CCCN3C[C@H](F)C4)nc3c(F)c(-c4ccc(F)c5sc(N)c(C#N)c45)c(C(F)(F)F)cc23)C1 [Compound 505] | 1000 to 10000
CCC(=O)N1CC[C@](C)(N(C)c2nc(OC[C@@]34CCCN3C[C@H](F)C4)nc3c(F)c(-c4ccc(F)c5sc(N)c(C#N)c45)c(C(F)(F)F)cc23)C1 [Compound 506] | 1000 to 10000

molecular target: T4, Avi-KRAS WT (1-169) GppNHp/RAF1 RBD-3xFLAG (52-151) (Homo sapiens, UniProt P01116); assay: Raf1-KRAS WT-GppNHP disruption HTRF assay (Biological Example 1); format: binding; settings: KRAS WT-GppNHp/RAF1 RBD HTRF
T4 construct: Avi-KRAS WT (1-169)
Summary of the method: as §1

T4 sequence (P01116 1-169 isoform P01116-2): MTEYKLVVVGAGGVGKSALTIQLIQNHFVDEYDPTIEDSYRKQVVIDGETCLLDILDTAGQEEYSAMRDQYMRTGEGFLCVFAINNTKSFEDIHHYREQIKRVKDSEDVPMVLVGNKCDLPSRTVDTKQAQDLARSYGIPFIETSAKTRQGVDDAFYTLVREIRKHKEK

Compound | IC50 [nM]
CC(C)C(=O)N1CC[C@](C)(N(C)c2nc(OC[C@@]34CCCN3C[C@H](F)C4)nc3c(F)c(-c4ccc(F)c5sc(N)c(C#N)c45)c(C(F)(F)F)cc23)C1 [Compound 499] | 1000 to 10000
N#Cc1c(N)sc2c(F)ccc(-c3c(C(F)(F)F)cc4c(N5CCn6nc(C(=O)N7CC[C@H](O)C7)cc6C5)nc(OC[C@@]56CCCN5C[C@H](F)C6)nc4c3F)c12 [Compound 500] | 100 to 1000
N#Cc1c(N)sc2c(F)ccc(-c3c(C(F)(F)F)cc4c(N5CCn6nc(C(=O)N7CC(O)C7)cc6C5)nc(OC[C@@]56CCCN5C[C@H](F)C6)nc4c3F)c12 [Compound 502] | 100 to 1000
CC(=O)N1C[C@@H](N(C)c2nc(OC[C@@]34CCCN3C[C@H](F)C4)nc3c(F)c(-c4ccc(F)c5sc(N)c(C#N)c45)c(C(F)(F)F)cc23)C[C@H]1CC#N [Compound 503] | 1000 to 10000
CC(=O)N1CC[C@](C)(N(C)c2nc(OC[C@@]34CCCN3C[C@H](F)C4)nc3c(F)c(-c4ccc(F)c5sc(N)c(C#N)c45)c(C(F)(F)F)cc23)C1 [Compound 505] | 1000 to 10000
CCC(=O)N1CC[C@](C)(N(C)c2nc(OC[C@@]34CCCN3C[C@H](F)C4)nc3c(F)c(-c4ccc(F)c5sc(N)c(C#N)c45)c(C(F)(F)F)cc23)C1 [Compound 506] | 1000 to 10000

system: GP2d cells (KRAS G12D); assay: Cell-based pERK HTRF assay in GP2d cell (Biological Example 2); settings: GP2d, GP2d (KRAS G12D) cells, pERK HTRF
Summary of the method: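 GP2d (KRAS G12D) cells were plated in DMEM/10% FBS and treated the next day for 60 min with compounds. Dosing used 9-point half-log series starting at 1 μM or 100 nM in 0.25% DMSO. Lysates were read by HTRF pERK (d2/Eu cryptate antibodies) after 4–24 h at room temperature, with excitation at 320 nm and emission at 615 nm.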

Compound | IC50 [nM]
CC(C)C(=O)N1CC[C@](C)(N(C)c2nc(OC[C@@]34CCCN3C[C@H](F)C4)nc3c(F)c(-c4ccc(F)c5sc(N)c(C#N)c45)c(C(F)(F)F)cc23)C1 [Compound 499] | < 100
N#Cc1c(N)sc2c(F)ccc(-c3c(C(F)(F)F)cc4c(N5CCn6nc(C(=O)N7CC[C@H](O)C7)cc6C5)nc(OC[C@@]56CCCN5C[C@H](F)C6)nc4c3F)c12 [Compound 500] | < 100
N#Cc1c(N)sc2c(F)ccc(-c3c(C(F)(F)F)cc4c(N5CCn6nc(C(=O)N7CC(O)C7)cc6C5)nc(OC[C@@]56CCCN5C[C@H](F)C6)nc4c3F)c12 [Compound 502] | < 100
CC(=O)N1C[C@@H](N(C)c2nc(OC[C@@]34CCCN3C[C@H](F)C4)nc3c(F)c(-c4ccc(F)c5sc(N)c(C#N)c45)c(C(F)(F)F)cc23)C[C@H]1CC#N [Compound 503] | < 100
CC(=O)N1CC[C@](C)(N(C)c2nc(OC[C@@]34CCCN3C[C@H](F)C4)nc3c(F)c(-c4ccc(F)c5sc(N)c(C#N)c45)c(C(F)(F)F)cc23)C1 [Compound 505] | < 100
CCC(=O)N1CC[C@](C)(N(C)c2nc(OC[C@@]34CCCN3C[C@H](F)C4)nc3c(F)c(-c4ccc(F)c5sc(N)c(C#N)c45)c(C(F)(F)F)cc23)C1 [Compound 506] | < 100

system: SW620 cells (KRAS G12V); assay: Cell-based pERK HTRF assay in SW620 cell (Biological Example 4); settings: Homo sapiens, SW-620, SW620 (KRAS G12V) cells, pERK HTRF
Summary of the method: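 Read-out: HTRF pERK signal (excitation 320 nm, emission 615 nm) from lysates of SW620 cells after 4 h compound exposure. Dose range was 9 points, half-log steps from 1 μM, in 0.25% DMSO; antibody incubation ran 4–24 h at room temperature.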

Compound | IC50 [nM]
CC(C)C(=O)N1CC[C@](C)(N(C)c2nc(OC[C@@]34CCCN3C[C@H](F)C4)nc3c(F)c(-c4ccc(F)c5sc(N)c(C#N)c45)c(C(F)(F)F)cc23)C1 [Compound 499] | < 100
N#Cc1c(N)sc2c(F)ccc(-c3c(C(F)(F)F)cc4c(N5CCn6nc(C(=O)N7CC[C@H](O)C7)cc6C5)nc(OC[C@@]56CCCN5C[C@H](F)C6)nc4c3F)c12 [Compound 500] | 100 to 1000
N#Cc1c(N)sc2c(F)ccc(-c3c(C(F)(F)F)cc4c(N5CCn6nc(C(=O)N7CC(O)C7)cc6C5)nc(OC[C@@]56CCCN5C[C@H](F)C6)nc4c3F)c12 [Compound 502] | 100 to 1000
CC(=O)N1C[C@@H](N(C)c2nc(OC[C@@]34CCCN3C[C@H](F)C4)nc3c(F)c(-c4ccc(F)c5sc(N)c(C#N)c45)c(C(F)(F)F)cc23)C[C@H]1CC#N [Compound 503] | 100 to 1000
CC(=O)N1CC[C@](C)(N(C)c2nc(OC[C@@]34CCCN3C[C@H](F)C4)nc3c(F)c(-c4ccc(F)c5sc(N)c(C#N)c45)c(C(F)(F)F)cc23)C1 [Compound 505] | 100 to 1000
CCC(=O)N1CC[C@](C)(N(C)c2nc(OC[C@@]34CCCN3C[C@H](F)C4)nc3c(F)c(-c4ccc(F)c5sc(N)c(C#N)c45)c(C(F)(F)F)cc23)C1 [Compound 506] | < 100
